For this assay, the target named is T1, purified recombinant human p38 alpha MAPK (Homo sapiens, UniProt Q16539).
T1 construct: purchased Millipore, USA
Kind of assay: Inhibition of p38 alpha MAPK activity: TR-FRET kinase assay. Format: biochemical. The conditions noted are these: Concentration 1 μM; for inhibition at 1 µM: read-out: P38α Inhibition. As to the method:
Inhibition of p38 Alpha MAPK Activity: Time-Resolved Fluorescence Resonance Energy Transfer Kinase Standard Assay (TR-FRET Assay)
Compounds of present invention at various concentrations were premixed with DMSO. The experiment was initiated by mixing 0.5% 1.0% DMSO as vehicle/compounds with purified recombinant human p38 alpha MAPK (Millipore, USA) in the wells and 15 min incubation at RT. Thereafter, 30 nM of Biotinylated GST-ATF2 (Activation Transcription Factor2) and 100 μM of ATP were added in to the wells containing reaction mixture, followed by reincubation for 60 minutes at RT. Reaction was terminated by addition of 10 mM of EDTA and detection reagent containing anti-phosphothreonine ATF2 antibody (Perkin Elmer, USA) labelled with europium chelate and APC (Allophycocyanin) labeled streptavidin, into the reaction mixture which was further incubated for 60 minutes at room temperature. The degree of phosphorylation of the substrate (GST-ATF2) was measured using Envision multimode reader (Perkin Elmer). Percentage inhibition of p38 kinase activity was calculated by determining ratio of specific europium 665 nm energy transfer signal to reference 615 nm signal.

T1 sequence (Q16539 whole entry): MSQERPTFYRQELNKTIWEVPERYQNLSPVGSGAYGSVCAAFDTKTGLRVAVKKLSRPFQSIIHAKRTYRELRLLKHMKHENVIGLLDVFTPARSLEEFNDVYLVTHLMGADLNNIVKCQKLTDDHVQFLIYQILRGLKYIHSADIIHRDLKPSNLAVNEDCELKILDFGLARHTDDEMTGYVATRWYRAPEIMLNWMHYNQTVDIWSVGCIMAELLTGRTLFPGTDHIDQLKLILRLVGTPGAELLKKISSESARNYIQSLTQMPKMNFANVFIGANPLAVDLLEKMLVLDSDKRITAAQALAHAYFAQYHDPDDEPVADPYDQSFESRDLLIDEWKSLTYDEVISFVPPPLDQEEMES

Consider “1-(3-tert-butyl-1-phenyl-1H-pyrazol-5-yl)-3-(2-{[3-(hydroxymethyl)-2-methylimidazo[2,1-b][1,3]benzothiazol-7-yl]oxy}benzyl)urea [Compound 38]”, for which the “P38α Inhibition” value is listed as “+++++ (+++++ = Inhibition ≥80% ≤ 100%)”.
As to “7-{[4-({[3-tert-butyl-1-(4-hydroxyphenyl)-1H-pyrazol-5-yl]carbamoyl}amino)phenyl]sulfanyl}-N-(2-hydroxyethyl)imidazo[2,1-b][1,3]benzothiazole-3-carboxamide [Compound 11]”, the “P38α Inhibition” value is “++ (++ = Inhibition ≥20% ≤ 40%)”.
With `CC(C)(C)c1cc(NC(=O)Nc2ccc(Oc3ccc4c(c3)sc3nc(C(=O)NCCN5CCOCC5)cn34)cc2)n(-c2ccc(O)c(Cl)c2)n1` [Compound 1, 7-[4-({[3-tert-butyl-1-(3-chloro-4-hydroxyphenyl)-1H-pyrazol-5-yl]carbamoyl}amino)phenoxy]-N-[2-(morpholin-4-yl)ethyl]imidazo[2,1-b][1,3]benzothiazole-2-carboxamide], the inhibition at 1 µM was in the range of 40 to 60%.
`Cc1ccc(-n2nc(C(C)(C)C)cc2NC(=O)Nc2ccc(Oc3ccc4c(c3)sc3nc(C(=O)NCCN5CCOCC5)cn34)cc2)cc1` [Compound 2, 7-[4-({[3-tert-butyl-1-(4-methylphenyl)-1H-pyrazol-5-yl]carbamoyl}amino)phenoxy]-N-[2-(morpholin-4-yl)ethyl]imidazo[2,1-b][1,3]benzothiazole-2-carboxamide]: the inhibition at 1 µM lay in the range of 60 to 80%.
For `Cc1ccc(-n2nc(C(C)(C)C)cc2NC(=O)Nc2ccc(Oc3ccc4c(c3)sc3nc(C(=O)NC(CO)c5ccccc5)cn34)cc2)cc1` (stereo not shown) [Compound 3, 7-[4-({[3-tert-butyl-1-(4-methylphenyl)-1H-pyrazol-5-yl]carbamoyl}amino)phenoxy]-N-(2-hydroxy-1-phenylethyl)imidazo[2,1-b][1,3]benzothiazole-2-carboxamide], the inhibition at 1 µM was in the range of 40 to 60%.
As to `Cc1ccc(-n2nc(C(C)(C)C)cc2NC(=O)Nc2ccc(Oc3ccc4c(c3)sc3nc(C(=O)NCCO)cn34)cc2)cc1` [Compound 4, 7-[4-({[3-tert-butyl-1-(4-methylphenyl)-1H-pyrazol-5-yl]carbamoyl}amino)phenoxy]-N-(2-hydroxyethyl)imidazo[2,1-b][1,3]benzothiazole-2-carboxamide], the inhibition at 1 µM fell in the range of 80 to 100%.
Turning to `CCOC(=O)c1cnc2sc3cc(Oc4ccc(NC(=O)Nc5cc(C(C)(C)C)nn5-c5ccc(OC)c(Cl)c5)cc4)ccc3n12` [Compound 5, ethyl 7-[4-({[3-tert-butyl-1-(3-chloro-4-methoxyphenyl)-1H-pyrazol-5-yl]carbamoyl}amino)phenoxy]imidazo[2,1-b][1,3]benzothiazole-3-carboxylate], the inhibition at 1 µM lay in the range of 20 to 40%.
As to `COc1ccc(-n2nc(C(C)(C)C)cc2NC(=O)Nc2ccc(Oc3ccc4c(c3)sc3ncc(C(=O)O)n34)cc2)cc1Cl` [Compound 6, 7-[4-({[3-tert-butyl-1-(3-chloro-4-methoxyphenyl)-1H-pyrazol-5-yl]carbamoyl}amino)phenoxy]imidazo[2,1-b][1,3]benzothiazole-3-carboxylic acid], the inhibition at 1 µM is 80 to 100%.
Same read-out and setting: for `COc1ccc(-n2nc(C(C)(C)C)cc2NC(=O)Nc2ccc(Oc3ccc4c(c3)sc3ncc(C(=O)NCCO)n34)cc2)cc1Cl` [Compound 7, 7-[4-({[3-tert-butyl-1-(3-chloro-4-methoxyphenyl)-1H-pyrazol-5-yl]carbamoyl}amino)phenoxy]-N-(2-hydroxyethyl)imidazo[2,1-b][1,3]benzothiazole-3-carboxamide] the value was 60 to 80%; for `CC(C)(C)c1cc(NC(=O)Nc2ccc(Oc3ccc4c(c3)sc3ncc(C(=O)O)n34)cc2)n(-c2ccc(O)c(Cl)c2)n1` [Compound 8, 7-[4-({[3-tert-butyl-1-(3-chloro-4-hydroxyphenyl)-1H-pyrazol-5-yl]carbamoyl}amino)phenoxy]imidazo[2,1-b][1,3]benzothiazole-3-carboxylic acid], 80 to 100%; for `CC(C)(C)c1cc(NC(=O)Nc2ccc(Sc3ccc4c(c3)sc3ncc(C(=O)O)n34)cc2)n(-c2ccc(O)cc2)n1` [Compound 9, 7-{[4-({[3-tert-butyl-1-(4-hydroxyphenyl)-1H-pyrazol-5-yl]carbamoyl}amino)phenyl]sulfanyl}imidazo[2,1-b][1,3]benzothiazole-3-carboxylic acid], 80 to 100%.
As for `COc1ccc(-n2nc(C(C)(C)C)cc2NC(=O)Nc2ccc(Sc3ccc4c(c3)sc3ncc(C(=O)O)n34)cc2)cc1` [Compound 10, 7-{[4-({[3-tert-butyl-1-(4-methoxyphenyl)-1H-pyrazol-5-yl]carbamoyl}amino)phenyl]sulfanyl}imidazo[2,1-b][1,3]benzothiazole-3-carboxylic acid], the inhibition at 1 µM was in the range of 80 to 100%.
In the case of `CCOC(=O)c1cnc2sc3cc(Oc4ccccc4CNC(=O)Nc4cc(C(C)(C)C)nn4-c4ccc(OC)cc4)ccc3n12` [Compound 12, ethyl 7-{2-[({[3-tert-butyl-1-(4-methoxyphenyl)-1H-pyrazol-5-yl]carbamoyl}amino)methyl]phenoxy}imidazo[2,1-b][1,3]benzothiazole-3-carboxylate], the inhibition at 1 µM was 80 to 100%.
On the same count and under the same terms, for `CC(C)(C)c1cc(NC(=O)NCc2ccccc2Oc2ccc3c(c2)sc2ncc(C(=O)O)n23)n(-c2ccc(O)cc2)n1` [Compound 13, 7-{2-[({[3-tert-butyl-1-(4-hydroxyphenyl)-1H-pyrazol-5-yl]carbamoyl}amino)methyl]phenoxy}imidazo[2,1-b][1,3]benzothiazole-3-carboxylic acid] the value was 80 to 100%; for `CC(C)(C)c1cc(NC(=O)NCc2ccccc2Oc2ccc3c(c2)sc2ncc(C(=O)NCCO)n23)n(-c2ccc(O)cc2)n1` [Compound 14, 7-{2-[({[3-tert-butyl-1-(4-hydroxyphenyl)-1H-pyrazol-5-yl]carbamoyl}amino)methyl]phenoxy}-N-(2-hydroxyethyl)imidazo[2,1-b][1,3]benzothiazole-3-carboxamide], 80 to 100%.
Same read-out and setting: for `COc1ccc(-n2nc(C(C)(C)C)cc2NC(=O)Nc2ccc(Oc3ccc4c(c3)sc3ncc(CO)n34)cc2)cc1` [Compound 15, 1-[3-tert-butyl-1-(4-methoxyphenyl)-1H-pyrazol-5-yl]-3-(4-{[3-(hydroxymethyl)imidazo[2,1-b][1,3]benzothiazol-7-yl]oxy}phenyl)urea] the value was 60 to 80%; for `CC(C)(C)c1cc(NC(=O)NCc2ccccc2Oc2ccc3c(c2)sc2ncc(CO)n23)n(-c2ccc(O)cc2)n1` [Compound 16, 1-[3-tert-butyl-1-(4-hydroxyphenyl)-1H-pyrazol-5-yl]-3-(2-{[3-(hydroxymethyl)imidazo[2,1-b][1,3]benzothiazol-7-yl]oxy}benzyl)urea], 80 to 100%; for `CCOC(=O)c1cnc2sc3cc(Oc4ccccc4CNC(=O)Nc4cc(C(C)(C)C)nn4-c4ccc(O)cc4)ccc3n12` [Compound 17, Ethyl 7-{2-[({[3-tert-butyl-1-(4-hydroxyphenyl)-1H-pyrazol-5-yl]carbamoyl}amino)methyl]phenoxy}imidazo[2,1-b][1,3]benzothiazole-3-carboxylate], 80 to 100%.
In the case of `CC(C)(C)c1cc(NC(=O)Nc2ccc(Sc3ccc4c(c3)sc3ncc(CO)n34)cc2)n(-c2ccc(O)cc2)n1` [Compound 18, 1-[3-tert-butyl-1-(4-hydroxyphenyl)-1H-pyrazol-5-yl]-3-(4-{[3-(hydroxymethyl)imidazo[2,1-b][1,3]benzothiazol-7-yl]sulfanyl}phenyl)urea], the inhibition at 1 µM is 40 to 60%.

Source of the values: patent publication US10227361B2, “Fused imidazobenzothiazole compounds” (TORRENT PHARMACEUTICALS LIMITED, priority 2014, dated 2019).
